Measured values reported in US10202361B2, “Pyridazinones as herbicides” (E I DU PONT DE NEMOURS AND COMPANY, priority 2014, dated 2019).
Read-outs that look alike come from different tables or passages of the source.

Experiments:
Format in all cases: in vivo
[1] = tested on: barnyardgrass (Echinochloa crus-galli); assay: Test C pre-/postemergence greenhouse herbicide test; details: Barnyardgrass
In short: (§1)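 Greenhouse pre- and postemergence screen: compounds in a non-phytotoxic solvent mix plus surfactant were applied to soil/sand-sown seeds or to 1- to 4-leaf plants. Visual rating 13–15 d later, 0 (no effect) to 100 (complete control).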

[2] = tested on: blackgrass (Alopecurus myosuroides); assay: as above; details: Alopecurus myosuroides, Blackgrass, read-out: Plant response rating; for pest or weed control at 31 g/ha: 31 g ai/ha; for pest or weed control at 62 g/ha: 62 g ai/ha; for pest or weed control at 125 g/ha: 125 g ai/ha; for pest or weed control at 250 g/ha: 250 g ai/ha
In short: as §1

[3] = tested on: crabgrass, Large (large crabgrass, Digitaria sanguinalis); assay: as above; details: Digitaria sanguinalis, Crabgrass, Large, read-out: Plant response rating; for pest or weed control at 31 g/ha: 31 g ai/ha; for pest or weed control at 62 g/ha: 62 g ai/ha; for pest or weed control at 125 g/ha: 125 g ai/ha; for pest or weed control at 250 g/ha: 250 g ai/ha
In short: as §1

[4] = tested on: galium (catchweed bedstraw, Galium aparine); assay: as above; details: Galium, read-out: Plant response rating; for pest or weed control at 31 g/ha: 31 g ai/ha; for pest or weed control at 62 g/ha: 62 g ai/ha; for pest or weed control at 125 g/ha: 125 g ai/ha; for pest or weed control at 250 g/ha: 250 g ai/ha
In short: as §1

kochia (Kochia scoparia) = assay: as above; details: Postemergence
In short: as §1

[5] = tested on: morningglory (Ipomoea coccinea); assay: as above; details: Morningglory
In short: as §1

[6] = tested on: oat, wild (wild oat, Avena fatua); assay: as above; details: Postemergence
In short: as §1

[7] = tested on: ragweed (common ragweed, Ambrosia elatior); assay: as above; details: Ambrosia artemisiifolia, Ragweed, read-out: Plant response rating; for pest or weed control at 31 g/ha: 31 g ai/ha; for pest or weed control at 62 g/ha: 62 g ai/ha; for pest or weed control at 125 g/ha: 125 g ai/ha; for pest or weed control at 250 g/ha: 250 g ai/ha
In short: as §1

[8] = tested on: ryegrass, Italian (Italian ryegrass, Lolium multiflorum); assay: as above; details: Lolium multiflorum, Ryegrass, Italian, read-out: Plant response rating; for pest or weed control at 31 g/ha: 31 g ai/ha; for pest or weed control at 62 g/ha: 62 g ai/ha; for pest or weed control at 125 g/ha: 125 g ai/ha; for pest or weed control at 250 g/ha: 250 g ai/ha
In short: as §1

[9] = tested on: waterhemp (common waterhemp, Amaranthus rudis); assay: as above; details: Waterhemp
In short: as §1

[10] = tested on: wheat (winter wheat, Triticum aestivum); assay: as above; details: Triticum aestivum, Wheat, read-out: Plant response rating; for plant injury at 62 g/ha: 62 g ai/ha; for plant injury at 125 g/ha: 125 g ai/ha; for plant injury at 250 g/ha: 250 g ai/ha
In short: as §1

[11] = tested on: poinsettia, wild (wild poinsettia, Euphorbia heterophylla); assay: Test E pre-/postemergence greenhouse herbicide test; details: scale 0 to 100
[12] = tested on: goosegrass (Eleusine indica); assay: as above; details: Preemergence, scale 0 to 100

COc1cc(=O)n(-c2ccc(F)cc2)nc1Cc1ccnc(C(F)(F)F)c1 [Compound 17, 2-(4-fluorophenyl)-5-methoxy-6-[[2-(trifluoromethyl)-4-pyridinyl]methyl]-3 (2H)-pyridazinone]
Plant response rating ([1]; Postemergence, 31 g ai/ha): 5
Plant response rating ([1]; Postemergence, 62 g ai/ha): 5
Plant response rating ([1]; Postemergence, 125 g ai/ha): 10
Plant response rating ([1]; Postemergence, 250 g ai/ha): 35
Plant response rating ([1]; Preemergence, 31 g ai/ha): 80
Plant response rating ([1]; Preemergence, 62 g ai/ha): 90
Plant response rating ([1]; Preemergence, 125 g ai/ha): 100
Plant response rating ([1]; Preemergence, 250 g ai/ha): 100
pest or weed control at 31 g/ha ([2]; post-emergence, Postemergence): 5%
pest or weed control at 62 g/ha ([2]; post-emergence, Postemergence): 5%
pest or weed control at 125 g/ha ([2]; post-emergence, Postemergence): 5%
pest or weed control at 250 g/ha ([2]; post-emergence, Postemergence): 5%
pest or weed control at 31 g/ha ([2]; pre-emergence, Preemergence): 50%
pest or weed control at 62 g/ha ([2]; pre-emergence, Preemergence): 80%
pest or weed control at 125 g/ha ([2]; pre-emergence, Preemergence): 90%
pest or weed control at 250 g/ha ([2]; pre-emergence, Preemergence): 95%
pest or weed control at 31 g/ha ([3]; post-emergence, Postemergence): 10%
pest or weed control at 62 g/ha ([3]; post-emergence, Postemergence): 10%
pest or weed control at 125 g/ha ([3]; post-emergence, Postemergence): 15%
pest or weed control at 250 g/ha ([3]; post-emergence, Postemergence): 40%
pest or weed control at 31 g/ha ([3]; pre-emergence, Preemergence): 100%
pest or weed control at 62 g/ha ([3]; pre-emergence, Preemergence): 100%
pest or weed control at 125 g/ha ([3]; pre-emergence, Preemergence): 100%
pest or weed control at 250 g/ha ([3]; pre-emergence, Preemergence): 100%
pest or weed control at 31 g/ha ([4]; post-emergence, Postemergence): 60%
pest or weed control at 62 g/ha ([4]; post-emergence, Postemergence): 70%
pest or weed control at 125 g/ha ([4]; post-emergence, Postemergence): 75%
pest or weed control at 250 g/ha ([4]; post-emergence, Postemergence): 85%
pest or weed control at 31 g/ha ([4]; pre-emergence, Preemergence): 100%
pest or weed control at 62 g/ha ([4]; pre-emergence, Preemergence): 100%
pest or weed control at 125 g/ha ([4]; pre-emergence, Preemergence): 100%
pest or weed control at 250 g/ha ([4]; pre-emergence, Preemergence): 100%
Plant response rating (kochia (Kochia scoparia); 31 g ai/ha): 80
Plant response rating (kochia (Kochia scoparia); 62 g ai/ha): 90
Plant response rating (kochia (Kochia scoparia); 125 g ai/ha): 90
Plant response rating (kochia (Kochia scoparia); 250 g ai/ha): 90
Plant response rating ([5]; Postemergence, 31 g ai/ha): 65
Plant response rating ([5]; Postemergence, 62 g ai/ha): 65
Plant response rating ([5]; Postemergence, 125 g ai/ha): 65
Plant response rating ([5]; Postemergence, 250 g ai/ha): 70
Plant response rating ([5]; Preemergence, 31 g ai/ha): 85
Plant response rating ([5]; Preemergence, 62 g ai/ha): 85
Plant response rating ([5]; Preemergence, 125 g ai/ha): 100
Plant response rating ([5]; Preemergence, 250 g ai/ha): 100
Plant response rating ([6]; 31 g ai/ha): 10
Plant response rating ([6]; 62 g ai/ha): 15
Plant response rating ([6]; 125 g ai/ha): 40
Plant response rating ([6]; 250 g ai/ha): 45
pest or weed control at 31 g/ha ([7]; post-emergence, Postemergence): 40%
pest or weed control at 62 g/ha ([7]; post-emergence, Postemergence): 70%
pest or weed control at 125 g/ha ([7]; post-emergence, Postemergence): 80%
pest or weed control at 250 g/ha ([7]; post-emergence, Postemergence): 85%
pest or weed control at 31 g/ha ([7]; pre-emergence, Preemergence): 35%
pest or weed control at 62 g/ha ([7]; pre-emergence, Preemergence): 65%
pest or weed control at 125 g/ha ([7]; pre-emergence, Preemergence): 80%
pest or weed control at 250 g/ha ([7]; pre-emergence, Preemergence): 98%
pest or weed control at 31 g/ha ([8]; post-emergence, Postemergence): 5%
pest or weed control at 62 g/ha ([8]; post-emergence, Postemergence): 5%
pest or weed control at 125 g/ha ([8]; post-emergence, Postemergence): 5%
pest or weed control at 250 g/ha ([8]; post-emergence, Postemergence): 5%
pest or weed control at 31 g/ha ([8]; pre-emergence, Preemergence): 5%
pest or weed control at 62 g/ha ([8]; pre-emergence, Preemergence): 10%
pest or weed control at 125 g/ha ([8]; pre-emergence, Preemergence): 70%
pest or weed control at 250 g/ha ([8]; pre-emergence, Preemergence): 75%
Plant response rating ([9]; Postemergence, 31 g ai/ha): 60
Plant response rating ([9]; Postemergence, 125 g ai/ha): 85
Plant response rating ([9]; Postemergence, 250 g ai/ha): 85
Plant response rating ([9]; Preemergence, 62 g ai/ha): 100
Plant response rating ([9]; Preemergence, 125 g ai/ha): 100
Plant response rating ([9]; Preemergence, 250 g ai/ha): 100
plant injury at 31 g/ha ([10]; post-emergence, Postemergence, 31 g ai/ha): 5%
plant injury at 62 g/ha ([10]; post-emergence, Postemergence): 5%
plant injury at 125 g/ha ([10]; post-emergence, Postemergence): 5%
plant injury at 250 g/ha ([10]; post-emergence, Postemergence): 10%
plant injury at 62 g/ha ([10]; pre-emergence, Preemergence): 5%
plant injury at 125 g/ha ([10]; pre-emergence, Preemergence): 50%
plant injury at 250 g/ha ([10]; pre-emergence, Preemergence): 65%
Plant response rating: Poinsettia, Wild ([11]; Postemergence, 16 g ai/ha): 20
Plant response rating: Poinsettia, Wild ([11]; Postemergence, 31 g ai/ha): 30
Plant response rating: Poinsettia, Wild ([11]; Postemergence, 62 g ai/ha): 40
Plant response rating: Poinsettia, Wild ([11]; Postemergence, 125 g ai/ha): 40
Plant response rating: Poinsettia, Wild ([11]; Postemergence, 250 g ai/ha): 50
Plant response rating: Poinsettia, Wild ([11]; Preemergence, 16 g ai/ha): 20
Plant response rating: Poinsettia, Wild ([11]; Preemergence, 31 g ai/ha): 20
Plant response rating: Poinsettia, Wild ([11]; Preemergence, 62 g ai/ha): 30
Plant response rating: Poinsettia, Wild ([11]; Preemergence, 125 g ai/ha): 40
Plant response rating: Poinsettia, Wild ([11]; Preemergence, 250 g ai/ha): 100
Plant response rating: Goosegrass ([12]; 16 g ai/ha): 0
Plant response rating: Goosegrass ([12]; 31 g ai/ha): 20
Plant response rating: Goosegrass ([12]; 62 g ai/ha): 60
Plant response rating: Goosegrass ([12]; 125 g ai/ha): 95
Plant response rating: Goosegrass ([12]; 250 g ai/ha): 98
